Measurements: patent US6833489B1, “Assays for modulators of prolyl-4-hydroxylase” (Wisconsin Alumni Research Foundation, priority 1999, dated 2004)

Test system: C. elegans wild-type, dpy-18(ok162) or phy-2(ok177)
Assay: Exposure of adult hermaphrodites to inhibitors, lethality of progeny
Type: in vivo, Caenorhabditis elegans
Settings: regardless of genotype (wild-type
Method: All wild-type C. elegans were from an N2 Bristol strain. Worms were cultured at 20° C. under standard conditions unless otherwise noted (J. E. Sulston and J. Hodgkin, Methods. In The Nematode Caenorhabditis elegans, pp. 587-606, 1988). LG II:unc-4(e120) was used as a marker for transgenic assays. LG III:dpy-18(ok162) is a deletion mutation isolated specifically as a knock-out of the prolyl 4-hydroxylase on chromosome III. […] 11 alleles (mutations in the dpy-18 gene) are known—dpy-18: e346, e364, e499, e1096, e1270, e1862, h662, s361, s1304, s1305, s1306. LG IV:unc-22(e66) is a mutation that can be used to recognize chromosome IV, and poh-1(ok-177) is a deletion mutation isolated specifically as a knock-out of the prolyl 4-hydroxylase gene on chromosome IV.
Small molecules that inhibit protein function can be used to confirm and extend results from genetic experiments. We tested two known prolyl 4-hydroxylase inhibitors for their effects on C. elegans. […] Both inhibitors limit prolyl 4-hydroxylase activity in cells, where their esters are hydrolyzed to form competitors of α-ketoglutarate. We also tested Inhibitor III (which is similar in structure to Inhibitor II) and Inhibitor IV (which is similar in structure to Inhibitor I). Neither Inhibitor III nor […] is known to limit prolyl 4-hydroxylase activity in cells. […]

Row | SMILES | lethality of progeny (high level 2.7 μM, FIG. 2A) | lethality of progeny (high level 1.3 μM, FIG. 2B)
1 | CCOC(=O)c1ccnc(C(=O)OCC)c1 [Inhibitor I, 2,4-diethylpyridine dicarboxylate] | all progeny died | 
2 | COC(=O)CNC(=O)C(=O)OC [Inhibitor II, dimethyloxalylglycine] |  | all progeny died
